Reference: patent publication US10370360B2, “Small-molecule inhibitors targeting discoidin domain receptor 1 and uses thereof” (priority 2014, dated 2019)

Tests used:
Format in all cases: biochemical
DDR2 = DDR2 (Homo sapiens (Human), UniProt Q16832); test: LanthaScreen Eu kinase activity assay, DDR2; conditions: 100 nM ATP
c-Kit = c-Kit (Homo sapiens (Human), UniProt P10721); test: FRET-based Z'-Lyte kinase assay, c-kit; conditions: 300 μM ATP
DDR1 = DDR1 (Homo sapiens (Human), UniProt Q08345); test: LanthaScreen Eu kinase activity assay, DDR1; conditions: 100 nM ATP
Chain of DDR1 (Q08345 19-913): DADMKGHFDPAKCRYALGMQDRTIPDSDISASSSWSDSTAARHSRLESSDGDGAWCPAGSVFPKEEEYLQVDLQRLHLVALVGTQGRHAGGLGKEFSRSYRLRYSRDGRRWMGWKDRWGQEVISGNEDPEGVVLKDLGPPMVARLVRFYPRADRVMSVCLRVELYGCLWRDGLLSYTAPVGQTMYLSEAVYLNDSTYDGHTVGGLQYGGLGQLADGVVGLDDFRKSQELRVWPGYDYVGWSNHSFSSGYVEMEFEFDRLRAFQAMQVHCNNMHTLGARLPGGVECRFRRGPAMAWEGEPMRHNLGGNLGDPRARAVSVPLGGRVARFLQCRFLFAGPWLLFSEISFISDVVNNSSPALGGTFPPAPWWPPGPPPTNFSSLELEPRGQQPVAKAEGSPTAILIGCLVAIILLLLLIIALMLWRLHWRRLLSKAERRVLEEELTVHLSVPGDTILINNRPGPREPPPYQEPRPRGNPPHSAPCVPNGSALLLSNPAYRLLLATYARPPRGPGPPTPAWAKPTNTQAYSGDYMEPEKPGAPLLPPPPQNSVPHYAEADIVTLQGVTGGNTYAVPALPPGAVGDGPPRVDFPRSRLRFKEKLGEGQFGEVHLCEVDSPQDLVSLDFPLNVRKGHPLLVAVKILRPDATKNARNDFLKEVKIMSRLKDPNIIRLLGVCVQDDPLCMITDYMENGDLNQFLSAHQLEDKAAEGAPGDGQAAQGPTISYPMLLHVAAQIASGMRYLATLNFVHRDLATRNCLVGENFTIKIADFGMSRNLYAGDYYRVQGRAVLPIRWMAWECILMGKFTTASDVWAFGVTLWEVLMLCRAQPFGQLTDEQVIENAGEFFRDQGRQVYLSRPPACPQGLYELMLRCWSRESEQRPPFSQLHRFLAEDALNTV

Bcr-Abl = test: FRET-based Z'-Lyte kinase assay, Abl; conditions: 10 μM ATP; cells printed in μM
Chain of Bcr-Abl (P00519 whole entry): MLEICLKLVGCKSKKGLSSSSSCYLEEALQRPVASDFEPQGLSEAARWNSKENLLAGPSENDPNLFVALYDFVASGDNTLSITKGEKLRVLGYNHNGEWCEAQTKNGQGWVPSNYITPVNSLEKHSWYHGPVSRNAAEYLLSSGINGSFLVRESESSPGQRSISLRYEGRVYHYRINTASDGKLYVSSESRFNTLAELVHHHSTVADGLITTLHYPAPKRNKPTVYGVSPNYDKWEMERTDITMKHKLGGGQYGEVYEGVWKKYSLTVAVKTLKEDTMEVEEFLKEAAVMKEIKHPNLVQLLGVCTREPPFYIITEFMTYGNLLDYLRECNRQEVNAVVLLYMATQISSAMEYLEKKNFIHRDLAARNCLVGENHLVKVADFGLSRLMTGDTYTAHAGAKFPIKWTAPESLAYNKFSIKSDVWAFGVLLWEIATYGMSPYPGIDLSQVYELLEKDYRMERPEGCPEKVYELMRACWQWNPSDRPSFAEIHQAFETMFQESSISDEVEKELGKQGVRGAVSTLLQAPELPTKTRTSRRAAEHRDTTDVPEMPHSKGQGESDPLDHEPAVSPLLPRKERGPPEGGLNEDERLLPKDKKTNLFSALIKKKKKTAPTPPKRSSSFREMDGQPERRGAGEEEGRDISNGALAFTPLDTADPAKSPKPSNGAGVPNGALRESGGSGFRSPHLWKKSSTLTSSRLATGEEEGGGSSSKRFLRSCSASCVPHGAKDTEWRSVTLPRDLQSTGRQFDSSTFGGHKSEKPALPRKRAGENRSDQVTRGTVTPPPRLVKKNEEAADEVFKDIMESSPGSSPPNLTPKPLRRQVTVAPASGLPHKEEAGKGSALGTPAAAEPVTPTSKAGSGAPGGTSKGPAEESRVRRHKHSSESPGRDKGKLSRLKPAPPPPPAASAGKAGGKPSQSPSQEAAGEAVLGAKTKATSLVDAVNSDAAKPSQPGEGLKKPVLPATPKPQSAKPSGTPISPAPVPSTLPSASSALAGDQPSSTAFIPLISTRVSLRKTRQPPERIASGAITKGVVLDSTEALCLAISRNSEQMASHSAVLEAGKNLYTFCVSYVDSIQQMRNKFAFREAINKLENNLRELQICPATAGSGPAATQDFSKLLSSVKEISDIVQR

Chain of DDR2 (Q16832 22-855): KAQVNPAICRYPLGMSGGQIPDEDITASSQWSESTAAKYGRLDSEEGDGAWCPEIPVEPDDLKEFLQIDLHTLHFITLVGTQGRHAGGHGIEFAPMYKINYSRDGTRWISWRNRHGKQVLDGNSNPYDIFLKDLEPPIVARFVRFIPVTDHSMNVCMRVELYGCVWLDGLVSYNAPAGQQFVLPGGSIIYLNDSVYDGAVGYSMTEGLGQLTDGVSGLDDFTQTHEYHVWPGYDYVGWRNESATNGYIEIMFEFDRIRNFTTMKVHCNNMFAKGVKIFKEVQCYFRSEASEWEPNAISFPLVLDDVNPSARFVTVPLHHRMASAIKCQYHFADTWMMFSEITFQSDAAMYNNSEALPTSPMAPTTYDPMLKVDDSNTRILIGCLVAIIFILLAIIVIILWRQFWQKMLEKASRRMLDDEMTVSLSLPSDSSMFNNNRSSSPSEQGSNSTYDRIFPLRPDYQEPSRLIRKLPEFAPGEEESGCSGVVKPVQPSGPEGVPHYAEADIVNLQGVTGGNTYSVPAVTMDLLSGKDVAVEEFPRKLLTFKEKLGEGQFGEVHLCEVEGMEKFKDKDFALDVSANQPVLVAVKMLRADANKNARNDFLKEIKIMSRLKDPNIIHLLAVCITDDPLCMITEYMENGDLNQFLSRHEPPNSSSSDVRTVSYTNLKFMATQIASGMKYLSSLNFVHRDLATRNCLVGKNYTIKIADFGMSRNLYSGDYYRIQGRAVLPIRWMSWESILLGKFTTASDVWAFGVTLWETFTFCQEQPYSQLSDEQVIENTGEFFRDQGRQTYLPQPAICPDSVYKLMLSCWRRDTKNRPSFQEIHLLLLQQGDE
Chain of c-Kit (P10721 26-976): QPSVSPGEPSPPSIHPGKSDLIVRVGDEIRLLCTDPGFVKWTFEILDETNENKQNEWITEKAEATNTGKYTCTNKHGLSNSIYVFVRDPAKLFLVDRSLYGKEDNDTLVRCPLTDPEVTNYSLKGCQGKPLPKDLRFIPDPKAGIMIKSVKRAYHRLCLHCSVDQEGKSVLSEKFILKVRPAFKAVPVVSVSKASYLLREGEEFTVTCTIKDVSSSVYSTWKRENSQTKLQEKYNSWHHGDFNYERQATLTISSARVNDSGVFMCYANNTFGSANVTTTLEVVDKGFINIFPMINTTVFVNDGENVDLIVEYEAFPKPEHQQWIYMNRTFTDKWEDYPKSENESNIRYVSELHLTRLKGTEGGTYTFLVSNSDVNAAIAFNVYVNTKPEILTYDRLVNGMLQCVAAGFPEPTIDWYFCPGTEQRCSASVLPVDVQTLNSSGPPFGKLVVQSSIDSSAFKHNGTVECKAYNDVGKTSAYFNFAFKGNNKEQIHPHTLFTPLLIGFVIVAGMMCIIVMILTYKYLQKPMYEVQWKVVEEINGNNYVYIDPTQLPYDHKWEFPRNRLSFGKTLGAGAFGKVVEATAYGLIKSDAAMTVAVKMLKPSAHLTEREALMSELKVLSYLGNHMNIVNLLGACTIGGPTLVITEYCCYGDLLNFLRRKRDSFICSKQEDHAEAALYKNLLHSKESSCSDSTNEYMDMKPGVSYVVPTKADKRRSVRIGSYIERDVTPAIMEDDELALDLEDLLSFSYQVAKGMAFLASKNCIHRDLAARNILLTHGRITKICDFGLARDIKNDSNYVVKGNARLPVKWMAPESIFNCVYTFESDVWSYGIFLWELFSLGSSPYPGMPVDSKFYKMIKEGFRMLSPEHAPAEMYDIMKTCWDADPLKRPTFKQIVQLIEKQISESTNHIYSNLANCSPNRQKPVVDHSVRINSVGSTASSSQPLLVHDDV

Row | IC50 (DDR2; cells without unit) [µM] | IC50 (c-Kit) [nM] | IC50 (DDR2; cells printed in μM) [µM] | IC50 (DDR1) [nM] | IC50 (Bcr-Abl) [µM] | SMILES
1 | 0.306 | > 10000 |  |  |  | CC1CN(c2cncnc2)Cc2cc(C(=O)Nc3cc(CN4CCN(C)CC4)cc(C4CCCC4)c3)ccc21 (stereo not shown) [Example 32, N-(3-cyclopentyl-5-((4-methylpiperazin-1-yl)methyl)phenyl)-4-methyl-2-(pyrimidin-5-yl)-1,2,3,4-tetrahydroisoquinoline-7-carboxamide]
2 |  | 8700 |  |  |  | CN1CCN(Cc2cc(NC(=O)c3ccc4c(c3)CN(c3cnc5ccccc5c3)CC4)cc(C(F)(F)F)c2)CC1 [Example 5, N-(3-((4-methylpiperazin-1-yl)methyl)-5-(trifluoromethyl)phenyl)-2-(quinolin-3-yl)-1,2,3,4-tetrahydroisoquinoline-7-carboxamide]
3 |  | > 10000 | 1.2 |  |  | CC1CN(c2cccnc2)Cc2cc(C(=O)Nc3cc(CN4CCN(C)CC4)cc(C(F)(F)F)c3)ccc21 (stereo not shown) [Example 6, 4-methyl-N-(3-((4-methylpiperazin-1-yl)methyl)-5-(trifluoromethyl)phenyl)-2-(pyridin-3-yl)-1,2,3,4-tetrahydroisoquinoline-7-carboxamide]
4 |  | > 10000 | 2.2 | 132 | > 10 | CC1CN(c2cncnc2)Cc2cc(C(=O)Nc3cc(N4CCN(C)CC4)cc(C(F)(F)F)c3)ccc21 (stereo not shown) [Example 11]
5 |  | > 10000 |  |  |  | CC1CN(c2cncnc2)Cc2cc(C(=O)Nc3cc(CN4CCN(C)CC4)cc(C(F)(F)F)c3)ccc21 (stereo not shown) [Example 1, 4-methyl-N-(3-((4-methylpiperazin-1-yl)methyl)-5-(trifluoromethyl)phenyl)-2-(pyrimidin-5-yl)-1,2,3,4-tetrahydroisoquinoline-7-carboxamide]
6 |  | > 10000 | 1.1 | 89 |  | CC1CN(c2cncnc2)Cc2cc(C(=O)Nc3cc(CN4CCN(C)CC4)cc(C4CC4)c3)ccc21 (stereo not shown) [Example 31, N-(3-cyclopropyl-5-((4-methylpiperazin-1-yl)methyl)phenyl)-4-methyl-2-(pyrimidin-5-yl)-1,2,3,4-tetrahydroisoquinoline-7-carboxamide]
7 |  | > 10000 | 4.5 | 193 | > 10 | CC1CN(c2cncnc2)Cc2cc(C(=O)Nc3cc(CN4CCOCC4)cc(C(F)(F)F)c3)ccc21 (stereo not shown) [Example 18, 4-methyl-N-(3-(morpholinomethyl)-5-(trifluoromethyl)phenyl)-2-(pyrimidin-5-yl)-1,2,3,4-tetrahydroisoquinoline-7-carboxamide]
8 | 0.672 | > 10000 |  |  |  | CC1CN(c2cncnc2)Cc2cc(C(=O)Nc3cc(CN4CC[C@@H](N(C)C)C4)cc(C(F)(F)F)c3)ccc21 (stereo partly drawn) [Example 24, N-(3-(((R)-3-(dimethylamino)pyrrolidin-1-yl)methyl)-5-(trifluoromethyl)phenyl)-4-methyl-2-(pyrimidin-5-yl)-1,2,3,4-tetrahydroisoquinoline-7-carboxamide]
9 |  | > 10000 | 6.7 | 254 | > 10 | CC1CN(c2cncnc2)Cc2cc(C(=O)Nc3cc(CN(C)C)cc(C(F)(F)F)c3)ccc21 (stereo not shown) [Example 21, N-(3-((dimethylamino)methyl)-5-(trifluoromethyl)phenyl)-4-methyl-2-(pyrimidin-5-yl)-1,2,3,4-tetrahydroisoquinoline-7-carboxamide]
10 | 0.94 | > 10000 |  | 66.6 |  | CC1CN(c2cncnc2)Cc2cc(C(=O)Nc3cc(CN4CCN(C)CC4)cc(C(C)(C)C)c3)ccc21 (stereo not shown) [Example 28, N-(3-tert-butyl-5-((4-methylpiperazin-1-yl)methyl)phenyl)-4-methyl-2-(pyrimidin-5-yl)-1,2,3,4-tetrahydroisoquinoline-7-carboxamide]
11 | 0.457 | > 10000 |  | 71.6 | > 10 | CC1CN(c2cncnc2)Cc2cc(C(=O)Nc3cc(CN4CCN(C)CC4)cc(C4CCCCC4)c3)ccc21 (stereo not shown) [Example 22, N-(3-cyclohexyl-5-((4-methylpiperazin-1-yl)methyl)phenyl)-4-methyl-2-(pyrimidin-5-yl)-1,2,3,4-tetrahydroisoquinoline-7-carboxamide]
12 | 0.449 | > 10000 |  | 36.7 | > 10 | CC1CN(c2cncnc2)Cc2cc(C(=O)Nc3cc(CCN4CCN(C)CC4)cc(C(F)(F)F)c3)ccc21 (stereo not shown) [Example 10, 4-methyl-N-(3-(2-(4-methylpiperazin-1-yl)ethyl)-5-(trifluoromethyl)phenyl)-2-(pyrimidin-5-yl)-1,2,3,4-tetrahydroisoquinoline-7-carboxamide]
13 | 0.915 | > 10000 |  |  |  | CC1CN(c2cncnc2)Cc2cc(C(=O)Nc3cc(CN4CCN(C)CC4)c(Cl)c(C(F)(F)F)c3)ccc21 (stereo not shown) [Example 8, N-(4-chloro-3-((4-methylpiperazin-1-yl)methyl)-5-(trifluoromethyl)phenyl)-4-methyl-2-(pyrimidin-5-yl)-1,2,3,4-tetrahydroisoquinoline-7-carboxamide]
14 |  | > 10000 | 2 |  |  | CCC1CN(c2cncnc2)Cc2cc(C(=O)Nc3cc(CN4CCN(C)CC4)cc(C(F)(F)F)c3)ccc21 (stereo not shown) [Example 34, 4-ethyl-N-(3-((4-methylpiperazin-1-yl)methyl)-5-(trifluoromethyl)phenyl)-2-(pyrimidin-5-yl)-1,2,3,4-tetrahydroisoquinoline-7-carboxamide]
15 |  | > 10000 | 1.4 | 44.6 |  | CC1CN(c2cncnc2)Cc2cc(C(=O)Nc3cc(CN4CCN(C)CC4)cc(-c4ccccc4)c3)ccc21 (stereo not shown) [Example 29, 4-methyl-N-(5-((4-methylpiperazin-1-yl)methyl)biphenyl-3-yl)-2-(pyrimidin-5-yl)-1,2,3,4-tetrahydroisoquinoline-7-carboxamide]
16 | 0.527 | > 10000 |  | 39.1 | > 10 | CCN1CCN(Cc2cc(NC(=O)c3ccc4c(c3)CN(c3cncnc3)CC4C)cc(C(F)(F)F)c2)CC1 (stereo not shown) [Example 17, N-(3-((4-ethylpiperazin-1-yl)methyl)-5-(trifluoromethyl)phenyl)-4-methyl-2-(pyrimidin-5-yl)-1,2,3,4-tetrahydroisoquinoline-7-carboxamide]
17 |  | > 10000 | 1.4 |  |  | CC1CN(c2cncnc2)Cc2cc(C(=O)Nc3cc(CN4CCN(C)CC4)c(F)c(C(F)(F)F)c3)ccc21 (stereo not shown) [Example 27, N-(4-fluoro-3-((4-methylpiperazin-1-yl)methyl)-5-(trifluoromethyl)phenyl)-4-methyl-2-(pyrimidin-5-yl)-1,2,3,4-tetrahydroisoquinoline-7-carboxamide]
18 |  | > 10000 |  |  |  | C[C@H]1CN(c2cncnc2)Cc2cc(C(=O)Nc3cc(CN4CCN(C)CC4)cc(C(F)(F)F)c3)ccc21 [Example 38, (R)-4-methyl-N-(3-((4-methylpiperazin-1-yl)methyl)-5-(trifluoromethyl)phenyl)-2-(pyrimidin-5-yl)-1,2,3,4-tetrahydroisoquinoline-7-carboxamide]
19 |  | > 10000 |  |  |  | C[C@@H]1CN(c2cncnc2)Cc2cc(C(=O)Nc3cc(CN4CCN(C)CC4)cc(C(F)(F)F)c3)ccc21 [Example 37, (S)-4-methyl-N-(3-((4-methylpiperazin-1-yl)methyl)-5-(trifluoromethyl)phenyl)-2-(pyrimidin-5-yl)-1,2,3,4-tetrahydroisoquinoline-7-carboxamide]
20 |  | > 10000 | 1.2 |  |  | CC1CN(c2cncnc2)Cc2cc(C(=O)Nc3cc(CN(C)CCN(C)C)cc(C(F)(F)F)c3)ccc21 (stereo not shown) [Example 23, N-(3-(((2-(dimethylamino)ethyl)(methyl)amino)methyl)-5-(trifluoromethyl)phenyl)-4-methyl-2-(pyrimidin-5-yl)-1,2,3,4-tetrahydroisoquinoline-7-carboxamide]
21 |  | > 10000 | 8 |  |  | CN1CCN(Cc2cc(NC(=O)c3ccc4c(c3)CN(c3cncnc3)CC4)cc(C(F)(F)F)c2)CC1 [Example 3, N-(3-((4-methylpiperazin-1-yl)methyl)-5-(trifluoromethyl)phenyl)-2-(pyrimidin-5-yl)-1,2,3,4-tetrahydroisoquinoline-7-carboxamide]
22 |  | > 10000 | 7.8 |  |  | CN1CCN(Cc2cc(C(=O)Nc3ccc4c(c3)CN(c3cncnc3)CC4)cc(C(F)(F)F)c2)CC1 [Example 36, 3-((4-methylpiperazin-1-yl)methyl)-N-(2-(pyrimidin-5-yl)-1,2,3,4-tetrahydroisoquinolin-7-yl)-5-(trifluoromethyl)benzamide]
23 | 0.334 | > 10000 |  | 19.9 |  | CC1CN(c2cncnc2)Cc2cc(C(=O)Nc3ccc(CN4CCN(C)CC4)c(C(F)(F)F)c3)ccc21 (stereo not shown) [Example 12, 4-methyl-N-(4-((4-methylpiperazin-1-yl)methyl)-3-(trifluoromethyl)phenyl)-2-(pyrimidin-5-yl)-1,2,3,4-tetrahydroisoquinoline-7-carboxamide]
24 |  | > 10000 | 4.3 |  |  | CN1CCN(Cc2cc(NC(=O)c3ccc4c(c3)CN(c3cccnc3)CC4)cc(C(F)(F)F)c2)CC1 [Example 4, N-(3-((4-methylpiperazin-1-yl)methyl)-5-(trifluoromethyl)phenyl)-2-(pyridin-3-yl)-1,2,3,4-tetrahydroisoquinoline-7-carboxamide]
25 |  | > 10000 | 1.1 |  |  | Cc1c(CN2CCN(C)CC2)cc(NC(=O)c2ccc3c(c2)CN(c2cncnc2)CC3C)cc1C(F)(F)F (stereo not shown) [Example 9, 4-methyl-N-(4-methyl-3-((4-methylpiperazin-1-yl)methyl)-5-(trifluoromethyl)phenyl)-2-(pyrimidin-5-yl)-1,2,3,4-tetrahydroisoquinoline-7-carboxamide]
26 | 0.862 | > 10000 |  |  |  | CC1CN(c2cncnc2)Cc2cc(C(=O)Nc3cc(CN4CC[C@H](N(C)C)C4)cc(C(F)(F)F)c3)ccc21 (stereo partly drawn) [Example 25, N-(3-(((S)-3-(dimethylamino)pyrrolidin-1-yl)methyl)-5-(trifluoromethyl)phenyl)-4-methyl-2-(pyrimidin-5-yl)-1,2,3,4-tetrahydroisoquinoline-7-carboxamide]
